The values that follow come from article PMC2630426 (Journal of medicinal chemistry, 2008).

Where two headings read alike, the source gives them in different places.

For assay [1], the target named is T1, κ opioid receptor (Cavia porcellus, UniProt P41144). Nature of the assay: GPI assay, κ opioid antagonist potency. The assay is classed as biochemical, guinea pig.
Assay [2] concerns the target T2, δ opioid receptor (Mus musculus, UniProt P32300). The assay is described as follows: MVD assay, δ opioid antagonist potency. The assay is classed as biochemical.
Assay [3] deals with T3, μ opioid receptor (Rattus norvegicus, UniProt P33535). The assay is described as follows: rat brain membrane binding assay, μ opioid receptor. The settings on record: based on the receptor binding constants (Ki values).
Assay [4] deals with μ opioid receptor. Conditions: cited from earlier work.
In assay [5] the target is T4, δ opioid receptor (Rattus norvegicus, UniProt P33533). The settings on record: cited from earlier work.
Assay [6] concerns the target μ opioid receptor. The settings on record: cited from earlier work; for Ki: read-out: Ki^μ.
Assay [7] deals with T4, δ opioid receptor. The settings on record: read-out: Ki^δ; cited from earlier work.
For assay [8], the system named is μ opioid receptor. The settings on record: GPI, TAPP as μ agonist, cited from earlier work.
For assay [9], the target named is T1, κ opioid receptor. Conditions: GPI, U50,488 as κ agonist, cited from earlier work.
The target of assay [10] is T2, δ opioid receptor. The settings on record: cited from earlier work; for Ke^δ: MVD, DPDPE as δ agonist.
Assay [11] concerns the target T4, δ opioid receptor. The settings on record: ref Schiller et al. 4, cited from earlier work.
In assay [12] the target is T3, μ opioid receptor. The settings on record: cited from earlier work.
The target in assay [13] is T1, κ opioid receptor. The settings on record: read-out: Ki^κ, opioid receptor binding, cited from earlier work.
[14] abbreviates: endomorphin-derived μ antagonists.

T3 sequence (P33535 whole entry): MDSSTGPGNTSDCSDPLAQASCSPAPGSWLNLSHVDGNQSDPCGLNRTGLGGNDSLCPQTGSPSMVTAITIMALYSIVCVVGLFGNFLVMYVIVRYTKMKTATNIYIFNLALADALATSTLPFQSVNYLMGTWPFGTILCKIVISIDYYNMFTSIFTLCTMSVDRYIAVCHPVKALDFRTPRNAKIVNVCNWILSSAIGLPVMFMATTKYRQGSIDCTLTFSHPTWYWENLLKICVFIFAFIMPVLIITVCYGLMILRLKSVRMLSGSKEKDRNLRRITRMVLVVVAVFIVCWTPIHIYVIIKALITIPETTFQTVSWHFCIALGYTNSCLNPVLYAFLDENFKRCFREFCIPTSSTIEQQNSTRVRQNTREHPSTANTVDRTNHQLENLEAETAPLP
T4 sequence (P33533 whole entry): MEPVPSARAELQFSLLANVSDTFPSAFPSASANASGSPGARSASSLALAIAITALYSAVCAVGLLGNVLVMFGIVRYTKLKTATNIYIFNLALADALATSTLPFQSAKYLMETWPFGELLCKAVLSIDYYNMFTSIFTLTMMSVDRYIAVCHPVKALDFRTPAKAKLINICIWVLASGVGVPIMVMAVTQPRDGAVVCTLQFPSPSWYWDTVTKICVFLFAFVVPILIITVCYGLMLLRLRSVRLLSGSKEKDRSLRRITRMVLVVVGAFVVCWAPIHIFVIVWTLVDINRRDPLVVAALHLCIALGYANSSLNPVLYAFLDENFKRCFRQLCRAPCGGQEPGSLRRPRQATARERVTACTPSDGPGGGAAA
T1 sequence (P41144 whole entry): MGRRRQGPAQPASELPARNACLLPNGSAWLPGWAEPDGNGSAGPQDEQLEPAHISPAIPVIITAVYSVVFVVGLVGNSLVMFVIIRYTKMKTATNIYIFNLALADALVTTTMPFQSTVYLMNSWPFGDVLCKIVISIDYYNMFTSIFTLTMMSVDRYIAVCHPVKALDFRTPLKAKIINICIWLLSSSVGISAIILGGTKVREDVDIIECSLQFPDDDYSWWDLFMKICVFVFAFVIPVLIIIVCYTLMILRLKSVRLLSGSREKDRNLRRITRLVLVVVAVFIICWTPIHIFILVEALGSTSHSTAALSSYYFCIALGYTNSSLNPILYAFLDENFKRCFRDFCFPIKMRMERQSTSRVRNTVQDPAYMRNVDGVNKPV
T2 sequence (P32300 whole entry): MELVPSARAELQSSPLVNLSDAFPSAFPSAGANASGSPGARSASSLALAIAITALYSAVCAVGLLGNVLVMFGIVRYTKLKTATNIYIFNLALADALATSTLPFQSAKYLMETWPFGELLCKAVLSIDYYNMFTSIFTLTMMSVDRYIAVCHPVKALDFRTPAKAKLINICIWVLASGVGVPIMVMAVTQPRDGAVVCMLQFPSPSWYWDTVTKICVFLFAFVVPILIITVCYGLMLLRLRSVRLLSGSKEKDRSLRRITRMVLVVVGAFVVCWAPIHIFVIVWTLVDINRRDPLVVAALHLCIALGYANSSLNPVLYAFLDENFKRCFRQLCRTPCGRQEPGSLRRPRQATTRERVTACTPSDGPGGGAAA

Turning to `CC[C@H](C)[C@H](NC(=O)[C@H](CCCNC(=N)N)NC(=O)[C@H](CCCNC(=N)N)NC(=O)[C@H](CC(C)C)NC(=O)[C@H](Cc1ccccc1)NC(=O)CNC(=O)CNC(=O)[C@@H](C)Cc1c(C)cc(C(N)=O)cc1C)C(=O)N[C@@H](CCCNC(=N)N)C(=O)N1CCC[C@H]1C(=O)N[C@@H](CCCCN)C(N)=O` [compound 5, [(2S)-Mdcp^1]Dyn A(1-11)-NH2], the antagonist dissociation constant (Kb) at κ opioid receptor [1] is 5.96 ± 0.8 nM; at δ opioid receptor [2] it was 843 ± 88 nM. Besides, at μ opioid receptor [3], the “Ki ratio μ/δ/κ” value is on record as 1/1/1.

With H-Dmt-Sar-Phe-D-Nal-NH2, in the assay with μ opioid receptor [4], the “Ke^μ” value is reported as 2.34 nM. Further, the “Ke^δ” value on δ opioid receptor [5] is on record as 305 nM.

In the case of “[Dmt^1,D-2-Nal^4]endomorphin-1 [antanal-1]”, the inhibition constant (Ki) on μ opioid receptor [6] (setting [14]) is 2.38 nM.

In the case of “Dhp-c[N^ε,N^β-carbonyl-D-Lys^2,Dap^5]enkephalinamide”, the values for the inhibition constant (Ki) on μ opioid receptor [6] and with δ opioid receptor [7] were 15.5 nM and 273 nM, respectively.

Turning to “(2S)-Mdp-c[D-Pen-Gly-Phe(pF)-Pen]-Phe-OH (disulfide) [compound 4]”, the “Ke^μ” value with μ opioid receptor [8] (ref Schiller et al. 4) is given as 668 ± 40 nM. Further, on κ opioid receptor [9] (ref Schiller et al. 4), the “Ke^κ” value is listed as 4370 ± 860 nM. Further, the “Ke^δ” value at δ opioid receptor [10] (ref Schiller et al. 4) is reported as 0.785 ± 0.135 nM. Further, the “Ke ratio δ/μ/κ” value on δ opioid receptor [10] (from Ke values of GPI and MVD assays, ref Schiller et al. 4) is given as 1/851/5570. In addition, the “Ki ratio δ/μ/κ” value at δ opioid receptor [11] (based on Ki values) is on record as 1/175/1600.

“[Dmt^1,D-2-Nal^4]endomorphin-2 [antanal-2]”: the Ki on μ opioid receptor [6] (setting [14]) is 1.52 nM.

With “(2S)-Mdp-c[D-Pen-Gly-Phe(pF)-Pen]-Phe-OH (disulfide) (YCGFCF) [compound 4]”, the inhibition constant (Ki) is 406 ± 21 nM with μ opioid receptor [12] (read-out: Ki^μ, opioid receptor binding, ref Schiller et al. 4); 2.32 ± 0.4 nM with δ opioid receptor [11] (read-out: Ki^δ, opioid receptor binding); 3710 ± 400 nM with κ opioid receptor [13] (ref Schiller et al. 4).

In the case of “H-D-Phe-c[Cys-Tyr-D-Trp-Orn-Thr-Pen]-Thr-NH2 [CTOP]”, on μ opioid receptor [6] (read-out: IC50^μ, somatostatin-derived μ opioid antagonist), the 50% inhibitory concentration (IC50) is 2.8 nM.

With “(2S)-Mdp-c[D-Cys-Gly-Phe(pNO2)-D-Cys]NH2 (disulfide) [compound 2]”, the “Ke^μ” value with μ opioid receptor [8] (ref Schiller et al. 2) was 1.48 ± 0.18 nM. At κ opioid receptor [9] (ref Schiller et al. 2), the “Ke^κ” value is listed as 6.41 ± 0.18 nM. Besides, the “Ke^δ” value on δ opioid receptor [10] (ref Schiller et al. 2) is recorded as 3.48 ± 0.28 nM. Besides, the “Ki ratio μ/δ/κ” value on μ opioid receptor [12] (based on Ki values, ref Schiller et al. 2) is listed as 1/2/42. The Ki in the assay with κ opioid receptor [13] (ref Schiller et al. 2) is 92.8 ± 5.3 nM.

In the case of “[(2S)-Mdp^1]Dyn A(1-11)-NH2 [compound 6]”, in the assay on μ opioid receptor [8] (ref Lu et al. 3), the “Ke^μ” value is recorded as 925 ± 94 nM. The “Ke^κ” value at κ opioid receptor [9] (ref Lu et al. 3) is recorded as 3.92 ± 0.65 nM. The “Ke^δ” value at δ opioid receptor [10] (ref Lu et al. 3) was 3320 ± 520 nM.
